Reference: patent US20080255155A1, “KINASE INHIBITORS AND USES THEREOF” (priority 2006, published 2008)

Experiments:
[1] = target: T1, recombinant human c-Met/HGF receptor (Homo sapiens, UniProt P08581); test: In vitro receptor tyrosine kinase assay, c-Met (DELFIA); type: biochemical; conditions: ATP 10 uM, enzyme 25 nM; read-out: Potency in enzyme assays Cmet
T1 construct: His tag; made in house; host or cells: Hi-5 cells (Trichoplusia ni), recombinant baculovirus
From the text: (§1) These tests measure the ability of compounds to inhibit the enzymatic activity of recombinant human c-Met/HGF receptor and VEGF receptor enzymatic activity.
A 1.3-kb cDNA corresponding to the intracellular domain of c-Met or c-Met IC (Genbank accession number NP000236-1 amino acid […]) is cloned into the BamHI/XhoI sites of the pBlueBacHis2A vector (Invitrogen) for the production of a histidine-tagged version of that enzyme. This construct is used to generate recombinant baculovirus using the Bac-N-Blue™ system according to the manufacturer's instructions (Invitrogen).
(§2) The c-Met IC protein is expressed in Hi-5 cells (Trichoplusia Ni) upon infection with recombinant baculovirus construct. Briefly, Hi-5 cells grown in suspension and maintained in serum-free medium (Sf900 II supplemented with gentamycin) at a cell density of about 2×10^6 cells/ml are infected with the above-mentioned viruses at a multiplicity of infection (MOI) of 0.2 during 72 hours at 27° C. with agitation at 120 rpm on a rotary shaker. Infected cells are harvested by centrifugation at 398 g for 15 min. Cell pellets are frozen at −80° C. until purification is performed.
All steps described in cell extraction and purification are performed at 4° C. Frozen Hi-5 cell pellets infected with the C-Met IC recombinant baculovirus are thawed and gently resuspended in Buffer A (20 mM Tris pH 8.0, 10% glycerol, 1 μg/ml pepstatin, 2 μg/ml Aprotinin and leupeptin, 50 μg/ml PMSF, 50 μg/ml TLCK and 10 μM E64, 0.5 mM DTT and 1 mM Levamisole) using 3 ml of buffer per gram of cells. The suspension is Dounce homogenized after which it is centrifuged at 22500 g, 30 min., 4° C. The supernatant (cell extract) is used as starting material for purification of c-Met IC.
The supernatant is loaded onto a QsepharoseFF column (Amersham Biosciences) equilibrated with Buffer B (20 mM Tris pH 8.0, 10% glycerol) supplemented with 0.05M NaCl. Following a ten column volume (CV) wash with equilibration buffer, bound proteins are eluted with a 5 CV salt linear gradient spanning from 0.05 to 1M NaCl in Buffer B. Typically, the conductivity of selected fractions rank between 6.5 and 37 mS/cm. This Qsepharose eluate has an estimated NaCl concentration of 0.33M and is supplemented with a 5M NaCl solution in order to increase NaCl concentration at 0.5M and also with a 5M Imidazole (pH 8.0) solution to achieve a final imidazole concentration of 15 mM. This material is loaded onto a HisTrap affinity column (GE Healthcare) equilibrated with Buffer C (50 mM NaPO4 pH 8.0, 0.5M NaCl, 10% glycerol) supplemented with 15 mM imidazole. After a 10 CV wash with equilibration buffer and an 8 CV wash with buffer C+40 mM imidazole, bound proteins are eluted with an 8 CV linear gradient (15 to 500 mM) of imidazole in buffer C. C-Met IC enriched fractions from this chromatography step are pooled based on SDS-PAGE analysis. This pool of enzyme undergoes buffer exchange using PD-10 column (GE Healthcare) against buffer D (25 mM HEPES pH 7.5, 0.1M NaCl, 10% glycerol and 2 mM β-mercaptoethanol). Final C-Met IC protein preparations concentrations are about 0.5 mg/ml with purity approximating 80%. Purified c-Met IC protein stocks are supplemented with BSA at 1 mg/ml, aliquoted and frozen at −80° C. prior to use in enzymatic assay.
Inhibition of c-Met/HGF receptor and VEGFR/KDR is measured in a DELFIA™ assay (Perkin Elmer). The substrate poly(Glu4,Tyr) is immobilized onto black high-binding polystyrene 96-well plates. The coated plates are washed and stored at 4° C. During the assay, enzymes are pre-incubated with inhibitor and Mg-ATP on ice in polypropylene 96-well plates for 4 minutes, and then transferred to the coated plates. The subsequent kinase reaction takes place at 30° C. for 10-30 minutes. ATP concentrations in the assay are 10 uM for C-Met (5× the Km) and 0.6 uM for VEGFR/KDR (2× the Km). Enzyme concentration is 25 nM (C-Met) or 5 nM (VEGFR/KDR). […]

VEGF receptor KDR = target: T2, VEGF receptor KDR (Homo sapiens, UniProt P35968); test: In vitro receptor tyrosine kinase assay, VEGF receptor KDR (DELFIA); type: biochemical; conditions: ATP 0.6 uM, enzyme 5 nM; read-out: Potency in enzyme assays VEGF
T2 construct: made in house; host or cells: Sf9 cells (Spodoptera frugiperda), recombinant baculovirus
From the text: as §1
In the case of VEGF receptor KDR a 1.6-kb cDNA corresponding to the catalytic domain of VEGFR2 or KDR (Genbank accession number AF035121 amino acid 806 to 1356) is cloned into the Pst I site of the pDEST20 Gateway vector (Invitrogen) for the production of a GST-tagged version of that enzyme. This construct is used to generate recombinant baculovirus using the Bac-to-Bac system according to the manufacturer's instructions (Invitrogen).
as §2, with “GST-VEGFR2806-1356” for “c-Met IC”, “Sf9” for “Hi-5”, “(Spodoptera frugiperda)” for “(Trichoplusia Ni)”, “0.1” for “0.2”
All steps described in cell extraction and purification are performed at 4° C. Frozen Sf9 cell pellets infected with the GST-VEGFR2806-1356 recombinant baculovirus re thawed and gently resuspended in Buffer A (PBS pH 7.3 supplemented with 1 μg/ml pepstatin, 2 μg/ml Aprotinin and leupeptin, 50 μg/ml PMSF, 50 μg/ml TLCK and 10 μM E64 and 0.5 mM DTT) using 3 ml of buffer per gram of cells. Suspension is Dounce homogenized and 1% Triton X-100 is added to the homogenate after which it is centrifuged at 22500 g, 30 min., 4° C. The supernatant (cell extract) is used as starting material for purification of GST-VEGFR2806-1356.
The supernatant is loaded onto a GST-agarose column (Sigma) equilibrated with PBS pH 7.3. Following a four column volume (CV) wash with PBS pH 7.3+1% Triton X-100 and 4 CV wash with buffer B (50 mM Tris pH 8.0, 20% glycerol and 100 mM NaCl), bound proteins are step eluted with 5 CV of buffer B supplemented with 5 mM DTT and 15 mM glutathion. GST-VEGFR2806-1356 enriched fractions from this chromatography step are pooled based on U.V. trace i.e. fractions with high O.D^-280- Final GST-VEGFR2806-1356 protein preparations concentrations are about 0.7 mg/ml with purity approximating 70%. Purified GST-VEGFR2806-1356 protein stocks are aliquoted and frozen at −80° C. prior to use in enzymatic assay.
Inhibition of c-Met/HGF receptor and VEGFR/KDR is measured in a DELFIA™ assay (Perkin Elmer). The substrate poly(Glu4,Tyr) is immobilized onto black high-binding polystyrene 96-well plates. The coated plates are washed and stored at 4° C. During the assay, enzymes are pre-incubated with inhibitor and Mg-ATP on ice in polypropylene 96-well plates for 4 minutes, and then transferred to the coated plates. The subsequent kinase reaction takes place at 30° C. for 10-30 minutes. ATP concentrations in the assay are 10 uM for C-Met (5× the Km) and 0.6 uM for VEGFR/KDR (2× the Km). Enzyme concentration is 25 nM (C-Met) or 5 nM (VEGFR/KDR). After incubation, the kinase reactions are quenched with EDTA and the plates are washed. Phosphorylated product is detected by incubation with Europium-labeled anti-phosphotyrosine MoAb. After washing the plates, bound MoAb is detected by time-resolved fluorescence in a Gemini SpectraMax reader (Molecular Devices). Compounds are evaluated over a range of concentrations and IC50's (concentration of compounds giving 50% inhibition of enzymatic activity) are determined.

A549 = A549 wound healing inhibition; conditions: Homo sapiens; A549 cells; read-out: Potency in cell-based assays A549 wound healing inhibition
DU145 = DU145 scattering inhibition; conditions: Homo sapiens, DU-145; DU145 cells; read-out: Potency in cell-based assays DU145 scattering inhibition

T2 sequence (P35968 806-1356): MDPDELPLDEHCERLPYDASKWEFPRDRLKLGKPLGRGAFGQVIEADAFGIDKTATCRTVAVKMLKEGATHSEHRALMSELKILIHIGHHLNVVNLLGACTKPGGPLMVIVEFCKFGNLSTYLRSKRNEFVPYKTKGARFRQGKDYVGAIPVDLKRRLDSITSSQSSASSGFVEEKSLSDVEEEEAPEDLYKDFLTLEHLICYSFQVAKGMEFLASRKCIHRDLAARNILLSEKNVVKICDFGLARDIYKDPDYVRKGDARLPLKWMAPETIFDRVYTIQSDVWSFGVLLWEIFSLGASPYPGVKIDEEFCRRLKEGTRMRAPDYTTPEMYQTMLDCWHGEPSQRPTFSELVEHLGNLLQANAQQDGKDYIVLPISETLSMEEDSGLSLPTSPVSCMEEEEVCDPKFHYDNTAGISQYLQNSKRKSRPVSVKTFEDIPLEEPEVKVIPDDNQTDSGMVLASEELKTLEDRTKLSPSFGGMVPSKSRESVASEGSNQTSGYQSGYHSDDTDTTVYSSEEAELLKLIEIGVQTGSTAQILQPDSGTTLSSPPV
T1 sequence (P08581 1078-1337): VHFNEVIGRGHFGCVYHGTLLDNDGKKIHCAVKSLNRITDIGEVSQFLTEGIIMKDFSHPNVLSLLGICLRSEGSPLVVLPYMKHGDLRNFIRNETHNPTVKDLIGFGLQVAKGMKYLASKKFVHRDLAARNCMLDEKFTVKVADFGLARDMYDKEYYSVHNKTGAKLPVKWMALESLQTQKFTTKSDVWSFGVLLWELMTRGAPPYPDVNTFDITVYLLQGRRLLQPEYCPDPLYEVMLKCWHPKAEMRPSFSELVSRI

SMILES: CNC(=O)c1cc(Oc2ccc(NC(=O)N3CCN(c4ccc(F)cc4)C3=O)cc2F)ccn1 [Compound 87b, 4-(2-fluoro-4-(3-(4-fluorophenyl)-2-oxoimidazolidine-1-carboxamido)phenoxy)-N-methylpicolinamide]
- IC50 [1]: 500 to 1000 nM
- IC50 (VEGF receptor KDR): ≥ 1000 nM
- IC50 (A549): 1000 to 5000 nM
- IC50 (DU145): 1000 to 5000 nM

SMILES: O=C(NCCN1CCOCC1)c1cc(Oc2ccc(NC(=O)N3CCN(c4ccccc4)C3=O)cc2F)ccn1 [Compound 87c]
- IC50 [1]: ≥ 1000 nM
- IC50 (VEGF receptor KDR): ≥ 1000 nM
- IC50 (A549): > 10000 nM
- IC50 (DU145): > 10000 nM
